# Values quoted from earlier work, collected in patent US20230357095A1, “HYDROGEN NANOBUBBLES INFUSED WATER FOR […] IRRIGATION” (L'Air Liquide, Societe Anonyme pour l'Etude et …, priority 2020, published 2023).
# Where two headings read alike, the source gives them in different places.
# Details: P=1 bar
smiles,measurement,setting,value
[HH] [hydrogen],Saturation concentration of hydrogen in pure water,T=273.1 K,1.95 mg/L
same,Saturation concentration of hydrogen in pure water,T=298.1 K,1.60 mg/L
